Test results as given in patent US6413537B1, “Nystatin formulation having reduced toxicity” (Wisconsin Alumni Research Foundation, priority 2000, dated 2002).
Converted amounts (≈) assume the structure as drawn. Where two headings read alike, the source gives them in different places.

How the values were obtained:
[1] = Monomerizing (light scattering) effect of various surfactants on nystatin; format: physicochemical; conditions: nystatin kept constant at 200 μM; FIG. 7
Experimental: Nystatin formulations were prepared with various surfactants similar to the method of Example 1. The concentration of drug was kept constant at 200 μM. The intensity of the scattered light was measured using a fluorimeter with a fixed excitation wavelength of […].

[2] = system: erythrocytes (red blood cells)
Saccharomyces cerevisiae = experiment: Minimal fungicidal concentration (MFC); format: cell-based; conditions: 2 hrs contact at 37° C., no colony on YPD agar plate after 24 hr at 30° C.
Experimental: For measurement of minimal fungicidal concentration (MFC), the same procedure as the MIC measurement was employed up to the incubation step. Tubes containing Saccharomyces cerevisiae were placed in an incubator at 37° C. for 2 hrs., so that the cells might be killed. After 2 hrs. contact with the sample, the surviving cells were precipitated on the bottom of the tube by centrifugation (12000 g, 20 sec), and the supernatant decanted. […] All experiments were repeated three times. The MFC for the compositions in accordance with the present invention was determined to be 3 μg/mL.

[3] = Critical aggregation concentration (CAC) of nystatin by light scattering; format: physicochemical
Experimental: Nystatin (16 mg) was dissolved into 0.3 mL of dimethylsulfoxide (DMSO) under light protection, and was added into 15 mL of various aqueous Pluronic F127® solutions ranging from 0.1%-2.0%, making a 1100 μM nystatin solution. Each solution was serially diluted with the corresponding Pluronic F127® solution until a 3.8 μM nystatin concentration was obtained. After incubation at 37° C. for 30 min, each solution was subjected to light scattering using fluorimeter with fixed excitation wavelength of 450 nm. Band widths for excitation and emission were set at 3 nm and 1.5 nm, respectively. […] The intersection point of two linear lines was defined as the critical aggregation concentration (CAC) where self-aggregation of nystatin molecules begins, leading to an abrupt increase of intensity of scattered light.

[4] = Solubility measurement of freeze-dried nystatin formulations (NF) in distilled water; format: physicochemical; conditions: vortex mixed 5 min, 0.45 μm filtered, absorption at 307 nm
Experimental: An excess amount of each NF formulation from Example 1 was placed into 0.5 mL of distilled water, and mixed vigorously for 5 min with a vortex mixer. After filtering the slurry with a 0.45 μm syringe filter, the filtrate was diluted with dimethylformamide (DMF) for analysis. The amount of nystatin in each NF composition was calculated by absorption spectroscopy at 307 nm.

[5] = system: Saccharomyces cerevisiae, ATCC 4921; experiment: Minimal inhibitory concentration (MIC) in YPD broth; format: cell-based; conditions: 30° C., 24 hr, full inhibition by optical density at 600 nm
Experimental: NF samples were dissolved into DMSO and diluted with Bacto® YPD broth medium (10 g of Bacto® YPD in 200 mL of distilled water, and sterilized at 121° C.-124° C.), to give a nystatin level of 8 μg/mL. Nystatin levels were varied by serial dilution with broth medium to a level of 0.1 μg/mL. An aliquot (800 μL) of each nystatin sample was put into a microcentrifuge tube. 50 μL of the inoculum, containing 5×10^3 cfu/mL of Saccharomyces cerevisiae, ATCC 4921, in sterile distilled water, was added to each tube to give a total volume of 850 μL per tube. The tubes were incubated at 30° C. for 24 hr. A solvent control, Pluronic F127® control, and medium control were performed simultaneously to check the growth inhibiting activities of DMSO and Pluronic F127® as well as the sterility of the broth medium. […] The MIC for the nystatin formulations in accordance with the present invention was determined to be 3 μg/mL. The MIC of nystatin alone for Saccharomyces cerevisiae is about 3 μg/mL.

| Compound | surfactant level showing deaggregating activity (decrease of light scattering intensity) [1] | concentration of surfactant alone causing 50% hemolysis [2] | minimal fungicidal concentration (MFC) (Saccharomyces cerevisiae) [µg/mL] | CAC ([3]; distilled water alone) [µM] | CAC ([3]; distilled water containing 0.1% Pluronic F127, 37° C. 30 min) [µM] | CAC ([3]; distilled water containing 0.5% Pluronic F127, 37° C. 30 min) [µM] | CAC ([3]; distilled water containing 1.0% Pluronic F127, 37° C. 30 min) [µM] | CAC ([3]; distilled water containing 1.5% Pluronic F127, 37° C. 30 min) [µM] | CAC ([3]; distilled water containing 2.0% Pluronic F127, 37° C. 30 min) [µM] | Solubility [4] [µg/mL] | Solubility ([4]; listed as pure nystatin) [µg/mL] | minimal inhibitory concentration (MIC) [5] | concentration of nystatin causing 50% hemolysis ([2]; PBS pH 7.0 containing 0.1% Pluronic F127, FIG. 4) [µg/mL] | concentration of nystatin causing 50% hemolysis ([2]; PBS pH 7.0 containing 2% Pluronic F127, FIG. 4) [µg/mL] | 50% hemolysis inducing level of Nys ([2]; Table 1, erythrocytes in isotonic PBS, 37° C., 30 min) [µg/mL] | concentration of nystatin causing 50% hemolysis ([2]; isotonic PBS, FIG. 3) |
| --- | --- | --- | --- | --- | --- | --- | --- | --- | --- | --- | --- | --- | --- | --- | --- | --- |
| sorbitan mono-9-octadecanoate [Tween 80®] | about 100 μM | less than 50 μg/mL |  |  |  |  |  |  |  |  |  |  |  |  |  |  |
| C[C@@H]1[C@H](O)[C@@H](C)/C=C/C=C/CC/C=C/C=C/C=C/C=C/C(O[C@H]2O[C@H](C)[C@@H](O)[C@H](N)[C@@H]2O)CC2O[C@](O)(CC(O)C(O)CCC(O)CC(O)CC(O)CC(=O)O[C@H]1C)CC(O)C2C(=O)O (stereo partly shown) [pure Nys, Nystatin] |  |  | 12 (≈ 13 µM) | 52.8 | 50.1 | 108.0 | 134.2 | 154.3 | 217.9 | 540 (≈ 583 µM) | 500 (≈ 540 µM) | about 3 μg/mL | ~120 | ~270 | 60 | about 55 μg/mL |
